Data from patent US20060069132A1, “Azolecarboxamide herbicides” (priority 2004, published 2006).
Where two headings read alike, the source gives them in different places.

Columns and labels:
large crabgrass = assay: Test A pre-/postemergence herbicide test; type: in vivo, Digitaria sanguinalis; conditions: Digitaria sanguinalis, 240 h; for pest or weed control at 500 g/ha: 500 g ai/ha; for pest or weed control at 2000 g/ha: 2000 g ai/ha
Outline: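 Plants are held in greenhouse about ten days after treatment, then compared with untreated controls and scored 0 (no effect) to 100 (complete control). Preemergence dosing is a directed soil spray on sown sandy loam; postemergence dosing is spray to runoff at 2–10 cm height.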

rice [1] = assay: Test B pre-/postemergence herbicide test; type: in vivo, Oryza sativa; conditions: for Rice plant response rating: Preemergence, 500 g ai/ha, scale 0 to 100
Outline: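 Formulation: non-phytotoxic solvent mix with surfactant. Timing: preemergence on seed and postemergence on 2–18 cm plants, applied concurrently. Readout after 13–15 d greenhouse: visual 0–100 control rating against controls.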

blackgrass = assay: Test B postemergence herbicide test; type: in vivo, Alopecurus myosuroides; conditions: Postemergence, scale 0 (no effect) to 100 (complete control); for Plant response rating, Blackgrass: 500 g ai/ha, visual rating after 13 to 15 days
Outline: (§1)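 Visual control ratings, 0–100 versus untreated controls, taken after 13 to 15 days in the greenhouse. Blackgrass received a postemergence spray at the 1- to 4-leaf stage (2–18 cm); ducksalad, umbrella sedge and barnyardgrass were flooded-paddy treated at 2 leaves.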

ducksalad = assay: Test B flooded paddy test; type: in vivo, Heteranthera limosa; conditions: Heteranthera limosa, 336 h, 1000 g ai/ha, visual rating, scale 0 to 100 (0 no effect, 100 complete control), 13 to 15 days, read-out: Ducksalad plant response rating
Outline: as §1

cocklebur = assay: Test C pre-/postemergence herbicide test; type: in vivo, Xanthium strumarium; conditions: for Plant response rating (0 = no effect, 100 = complete control), Cocklebur: 62 g ai/ha, preemergence; for pest or weed control at 125 g/ha / pest or weed control at 250 g/ha / pest or weed control at 500 g/ha: Xanthium strumarium, pre-emergence, 312 h; for pest or weed control at 125 g/ha: 125 g ai/ha; for pest or weed control at 125 g/ha / pest or weed control at 250 g/ha: read-out: Plant response rating, Cocklebur; for pest or weed control at 250 g/ha: 250 g ai/ha, scale 0 to 100 (0 no effect, 100 complete control); for pest or weed control at 500 g/ha: Preemergence, 500 g ai/ha, scale 0 to 100, 0 no effect, 100 complete control, read-out: Cocklebur plant response rating
Outline: (§2)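 Greenhouse-grown plants were evaluated visually 12 to 14 days after treatment, with 100 meaning complete control and 0 no effect. Application was preemergence, or postemergence at 2 to 18 cm.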

giant foxtail = assay: Test C pre-/postemergence herbicide test; type: in vivo, Setaria faberi; conditions: for Plant response rating (0 = no effect, 100 = complete control), Foxtail, Giant: 62 g ai/ha, preemergence; for Foxtail, Giant plant response rating: Preemergence, 500 g ai/ha, scale 0 to 100, 0 no effect, 100 complete control; for pest or weed control at 125 g/ha / pest or weed control at 250 g/ha: Setaria faberi, pre-emergence, 312 h, read-out: Plant response rating, Foxtail, Giant; for pest or weed control at 125 g/ha: 125 g ai/ha; for pest or weed control at 250 g/ha: 250 g ai/ha, scale 0 to 100 (0 no effect, 100 complete control)
Outline: as §2

johnsongrass = assay: Test C pre-/postemergence herbicide test; type: in vivo, Sorghum halepense; conditions: for Plant response rating (0 = no effect, 100 = complete control), Johnsongrass: 62 g ai/ha, preemergence; for Johnsongrass plant response rating: Preemergence, 500 g ai/ha, scale 0 to 100, 0 no effect, 100 complete control; for pest or weed control at 125 g/ha / pest or weed control at 250 g/ha: Sorghum halepense, pre-emergence, read-out: Plant response rating, Johnsongrass; for pest or weed control at 125 g/ha: 125 g ai/ha; for pest or weed control at 250 g/ha: 250 g ai/ha, scale 0 to 100 (0 no effect, 100 complete control)
Outline: as §2

common ragweed = assay: Test C pre-/postemergence herbicide test; type: in vivo, Ambrosia elatior; conditions: for Plant response rating (0 = no effect, 100 = complete control), Ragweed: 62 g ai/ha, preemergence; for pest or weed control at 250 g/ha: 250 g ai/ha, scale 0 to 100 (0 no effect, 100 complete control); for Ragweed plant response rating: Preemergence, 500 g ai/ha, scale 0 to 100, 0 no effect, 100 complete control
Outline: as §2

[2] = test system: common (oilseed) sunflower; assay: Test C pre-/postemergence herbicide test; type: in vivo, Helianthus annuus; conditions: for Plant response rating (0 = no effect, 100 = complete control), Sunflower: 62 g ai/ha, preemergence; for pest or weed control at 250 g/ha: 250 g ai/ha, scale 0 to 100 (0 no effect, 100 complete control); for Sunflower plant response rating: Preemergence, 500 g ai/ha, scale 0 to 100, 0 no effect, 100 complete control
Outline: as §2

rice [3] = assay: Test C flooded paddy test; type: in vivo, Oryza sativa; conditions: Oryza sativa; for plant injury at 62 g/ha: 62 g ai/ha; for plant injury at 125 g/ha: 125 g ai/ha; for plant injury at 250 g/ha: 250 g ai/ha; for plant injury at 500 g/ha: 500 g ai/ha
Outline: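 Injury scored visually against controls on a 0 (no effect) to 100 (complete control) scale, 12 to 14 days after treatment in greenhouse. Flooded paddy plants treated at 2-leaf stage; postemergence plants at 1- to 4-leaf stage, 2 to 18 cm tall.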

[4] = post-emergence, Postemergence, 0 to 100 scale, 0 no effect, 100 complete control, read-out: Plant response rating, Crabgrass, Large
[5] = pre-emergence, Preemergence, visual rating, 0 to 100 scale (0 no effect, 100 complete control), read-out: Crabgrass, Large plant response rating
[6] = pre-emergence, Preemergence, 0 to 100 scale, 0 no effect, 100 complete control, read-out: Crabgrass, Large plant response rating
[7] = Ambrosia artemisiifolia, pre-emergence, visual, 12 to 14 days, read-out: Plant response rating, Ragweed
[8] = Helianthus annuus, pre-emergence, visual, 12 to 14 days, read-out: Plant response rating, Sunflower
[9] = scale 0 to 100 (0 no effect, 100 complete control), read-out: Rice plant response rating
[10] = scale of 0 to 100, 0 is no effect, 100 is complete control, read-out: Rice plant response rating
[11] = visual rating after 12 to 14 days, scale 0 to 100 (0 no effect, 100 complete control), read-out: Plant response rating, Rice
[12] = scale 0 (no effect) to 100 (complete control), visual, 12 to 14 days

## CCNC(=O)c1ccc(F)c(NC(=O)c2cc(C(C)(C)C)nn2CC)c1 [Compound 2, 3-(1,1-dimethylethyl)-1-ethyl-N-[5-[(ethylamino)carbonyl]-2-fluorophenyl]-1H-pyrazole-5-carboxamide]
Large crabgrass; [4]
  pest or weed control at 500 g/ha: 85%
  pest or weed control at 2000 g/ha: 100%
Large crabgrass; [5]
  pest or weed control at 500 g/ha: 100%
Large crabgrass; [6]
  pest or weed control at 2000 g/ha: 100%
Rice [1]
  Rice plant response rating: 90
blackgrass; Alopecurus myosuroides, post-emergence, 336 h, 125 g ai/ha, read-out: Blackgrass plant response rating
  pest or weed control at 125 g/ha: 10%
blackgrass
  Plant response rating, Blackgrass: 30
ducksalad
  pest or weed control at 1000 g/ha: 90%
cocklebur
  Plant response rating (0 = no effect, 100 = complete control), Cocklebur: 5
  pest or weed control at 500 g/ha: 80%
cocklebur; scale 0-100
  pest or weed control at 125 g/ha: 5%
cocklebur; visual, 12 to 14 days
  pest or weed control at 250 g/ha: 65%
Giant foxtail
  Plant response rating (0 = no effect, 100 = complete control), Foxtail, Giant: 80
  Foxtail, Giant plant response rating: 100
Giant foxtail; scale 0-100
  pest or weed control at 125 g/ha: 100%
Giant foxtail; visual, 12 to 14 days
  pest or weed control at 250 g/ha: 100%
johnsongrass
  Plant response rating (0 = no effect, 100 = complete control), Johnsongrass: 70
  Johnsongrass plant response rating: 100
johnsongrass; scale 0-100
  pest or weed control at 125 g/ha: 90%
johnsongrass; visual, 12 to 14 days
  pest or weed control at 250 g/ha: 100%
Common ragweed
  Plant response rating (0 = no effect, 100 = complete control), Ragweed: 80
  Ragweed plant response rating: 100
Common ragweed; [7]
  pest or weed control at 250 g/ha: 100%
[2]
  Plant response rating (0 = no effect, 100 = complete control), Sunflower: 0
  Sunflower plant response rating: 0
[2]; [8]
  pest or weed control at 250 g/ha: 0%
Rice [3]; [9]
  plant injury at 62 g/ha: 50%
Rice [3]; [10]
  plant injury at 125 g/ha: 50%
Rice [3]; [11]
  plant injury at 250 g/ha: 65%
  plant injury at 500 g/ha: 85%

## CCn1nc(C(C)(C)C)cc1C(=O)Nc1cccc2c1CN(C)C2=O [Compound 55, N-(2,3-dihydro-2-methyl-1-oxo-1H-isoindol-4-yl)-3-(1,1-dimethylethyl)-1-ethyl-1H-pyrazole-5-carboxamide]
Large crabgrass; [4]
  pest or weed control at 500 g/ha: 25%
  pest or weed control at 2000 g/ha: 100%
Large crabgrass; [5]
  pest or weed control at 500 g/ha: 75%
Large crabgrass; [6]
  pest or weed control at 2000 g/ha: 100%
Rice [1]; Oryza sativa, pre-emergence, 336 h, preemergence, 125 g ai/ha, 0 to 100 scale, 0 is no effect, 100 is complete control, read-out: Plant response rating, Rice
  plant injury at 125 g/ha: 50%
Rice [1]
  Rice plant response rating: 70
blackgrass
  Plant response rating, Blackgrass: 10
ducksalad
  pest or weed control at 1000 g/ha: 80%
cocklebur
  Plant response rating (0 = no effect, 100 = complete control), Cocklebur: 0
  pest or weed control at 500 g/ha: 0%
cocklebur; [12]
  pest or weed control at 125 g/ha: 0%
cocklebur; visual, 12 to 14 days
  pest or weed control at 250 g/ha: 0%
Giant foxtail
  Plant response rating (0 = no effect, 100 = complete control), Foxtail, Giant: 0
  Foxtail, Giant plant response rating: 100
Giant foxtail; [12]
  pest or weed control at 125 g/ha: 50%
Giant foxtail; visual, 12 to 14 days
  pest or weed control at 250 g/ha: 75%
johnsongrass
  Plant response rating (0 = no effect, 100 = complete control), Johnsongrass: 0
  Johnsongrass plant response rating: 100
johnsongrass; [12]
  pest or weed control at 125 g/ha: 75%
johnsongrass; visual, 12 to 14 days
  pest or weed control at 250 g/ha: 95%
Common ragweed
  Plant response rating (0 = no effect, 100 = complete control), Ragweed: 0
  Ragweed plant response rating: 80
Common ragweed; Ambrosia artemisiifolia, pre-emergence, 125 g ai/ha, scale 0 (no effect) to 100 (complete control), visual, 12 to 14 days, read-out: Plant response rating, Ragweed
  pest or weed control at 125 g/ha: 0%
Common ragweed; [7]
  pest or weed control at 250 g/ha: 0%
[2]
  Plant response rating (0 = no effect, 100 = complete control), Sunflower: 0
  Sunflower plant response rating: 0
[2]; Helianthus annuus, pre-emergence, 125 g ai/ha, scale 0 (no effect) to 100 (complete control), visual, 12 to 14 days, read-out: Plant response rating, Sunflower
  pest or weed control at 125 g/ha: 0%
[2]; [8]
  pest or weed control at 250 g/ha: 0%
Rice [3]; [9]
  plant injury at 62 g/ha: 0%
Rice [3]; [10]
  plant injury at 125 g/ha: 0%
  plant injury at 250 g/ha: 15%
Rice [3]; [11]
  plant injury at 500 g/ha: 60%
